{
  "source": "patent US9346815B2",
  "about": "“5-chloro-2-difluoromethoxyphenyl pyrazolopyrimidine compounds, compositions and methods of use thereof” (Genentech, Inc., priority 2014, dated 2016)",
  "key": {"[1]": {"target": "isolated recombinant JAK1 kinase domain (Homo sapiens (Human), UniProt P23458)", "sequence (P23458 875-1153)": "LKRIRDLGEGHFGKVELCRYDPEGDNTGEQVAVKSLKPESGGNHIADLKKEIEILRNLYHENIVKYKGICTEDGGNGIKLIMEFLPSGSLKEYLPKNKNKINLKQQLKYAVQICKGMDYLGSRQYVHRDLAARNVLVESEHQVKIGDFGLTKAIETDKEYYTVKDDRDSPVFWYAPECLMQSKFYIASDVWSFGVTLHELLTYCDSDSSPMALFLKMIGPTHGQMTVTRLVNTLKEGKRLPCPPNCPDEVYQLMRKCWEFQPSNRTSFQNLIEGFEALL", "assay": "JAK1 enzyme assay (Caliper LabChip, peptide phosphorylation)", "assay_type": "biochemical", "conditions": "isolated recombinant JAK1 kinase domain, 25 μM ATP"}, "[2]": {"target": "isolated recombinant JAK2 kinase domain (Homo sapiens (Human), UniProt O60674)", "sequence (O60674 849-1124)": "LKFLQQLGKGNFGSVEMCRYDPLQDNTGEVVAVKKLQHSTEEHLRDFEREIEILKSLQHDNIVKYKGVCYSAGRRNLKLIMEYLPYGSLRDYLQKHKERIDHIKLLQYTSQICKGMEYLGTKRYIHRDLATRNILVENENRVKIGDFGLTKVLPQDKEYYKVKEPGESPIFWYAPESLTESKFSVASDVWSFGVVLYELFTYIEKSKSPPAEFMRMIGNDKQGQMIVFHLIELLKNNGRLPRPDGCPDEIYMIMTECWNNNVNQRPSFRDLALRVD", "assay": "JAK2 enzyme assay (Caliper LabChip, peptide phosphorylation)", "assay_type": "biochemical", "conditions": "25 μM ATP"}, "[3]": {"test_system": "JAK1-dependent STAT6 phosphorylation downstream of IL-13 stimulation in TF-1 human erythroleukemia cells", "assay": "JAK1 pathway assay in TF-1 cells (IL-13-pSTAT6, MSD)", "assay_type": "cell-based", "conditions": "Homo sapiens, TF-1, TF-1 cells, read-out: IL13-pSTAT6 EC50_TF-1", "experimental": "JAK1 Pathway Assay in Cell Lines was Carried Out as Follows:\nInhibitor potency (EC50) was determined in cell-based assays designed to measure JAK1 dependent STAT phosphorylation.\nIn one assay approach, TF-1 human erythroleukemia cells obtained from the American Type Culture Collection (ATCC; Manassas, Va.) were used to measure JAK1-dependent STAT6 phosphorylation downstream of IL-13 stimulation. Prior to use in the assays, TF-1 cells were starved of GM-CSF overnight in OptiMEM medium (Life Technologies, Grand Island, N.Y.) supplemented with 0.5% charcoal/dextran stripped fetal bovine serum (FBS), 0.1 mM non-essential amino acids (NEAA), and 1 mM sodium pyruvate. The assays were run in 384-well plates in serum-free OptiMEM medium using 300,000 cells per well. In a second assay approach, BEAS-2B human bronchial epithelial cells obtained from ATCC were plated at 100,000 cells per well of a 96-well plate one day prior to the experiment. The BEAS-2B assay was run in complete growth medium (bronchial epithelial basal medium plus bulletkit; Lonza; Basel, Switzerland).\nTest compounds were serially diluted 1:2 in DMSO and then diluted 1:50 in medium just before use. Diluted compounds were added to the cells, for a final DMSO concentration of 0.2%, and incubated for 30 min (for the TF-1 assay) or 1 hr (for the BEAS-2B assay) at 37° C. Then, cells were stimulated with human recombinant cytokine at their respective EC90 concentrations, as previously determined for each individual lot. Cells were stimulated with IL-13 (R&D Systems, Minneapolis, Minn.) for 15 min at 37° C. The TF-1 cell reactions were stopped by the direct addition of 10× lysis buffer (Cell Signaling Technologies, Danvers, Mass.), whereas the BEAS-2B cell incubations were halted by the removal of medium and addition of 1× lysis buffer. The resultant samples were frozen in the plates at −80° C. Compound mediated inhibition of STAT6 phosphorylation was measured in the cell lysates using MesoScale Discovery (MSD) technology (Gaithersburg, Md.)."}},
  "note": "Where a name gives a salt, the structure may show the parent alone.",
  "data": [
    {"smiles": "O=C(Nc1cn(CC(=O)N2CCC(N(CCc3ccccc3)CC(F)(F)F)CC2)nc1-c1cc(Cl)ccc1OC(F)F)c1cnn2cccnc12", "note": "[Example 103, N-[3-[5-chloro-2-(difluoromethoxy)phenyl]-1-[2-oxo-2-[4-[2-phenylethyl(2,2,2-trifluoroethyl)amino]-1-piperidyl]ethyl]pyrazol-4-yl]pyrazolo[1,5-a]pyrimidine-3-carboxamide]", "values": [
      {"measurement": "Ki", "setting": "[1]", "result": 3.98, "unit": "nM"},
      {"measurement": "Ki", "setting": "[2]", "result": 7.95, "unit": "nM"},
      {"measurement": "EC50", "setting": "[3]", "result": 265, "unit": "nM"}
    ]},
    {"smiles": "COCCCN1C[C@@H]2CN(C(=O)Cn3cc(NC(=O)c4cnn5cccnc45)c(-c4cc(Cl)ccc4OC(F)F)n3)C[C@@H]2C1", "note": "[Example 38, N-[1-[2-[(3aR,6aS)-2-(3-methoxypropyl)-1,3,3a,4,6,6a-hexahydropyrrolo[3,4-c]pyrrol-5-yl]-2-oxo-ethyl]-3-[5-chloro-2-(difluoromethoxy)phenyl]pyrazol-4-yl]pyrazolo[1,5-a]pyrimidine-3-carboxamide]", "values": [
      {"measurement": "Ki", "setting": "[1]", "result": 0.88, "unit": "nM"},
      {"measurement": "Ki", "setting": "[2]", "result": 0.78, "unit": "nM"},
      {"measurement": "EC50", "setting": "[3]", "result": 8.5, "unit": "nM"}
    ]},
    {"smiles": "CN1CC[C@@H]2CN(C(=O)Cn3cc(NC(=O)c4cnn5cccnc45)c(-c4cc(Cl)ccc4OC(F)F)n3)CC[C@@H]21", "note": "[Example 41, N-[1-[2-[(3aR,7aS)-1-methyl-3,3a,4,6,7,7a-hexahydro-2H-pyrrolo[3,2-c]pyridin-5-yl]-2-oxo-ethyl]-3-[5-chloro-2-(difluoromethoxy)phenyl]pyrazol-4-yl]pyrazolo[1,5-a]pyrimidine-3-carboxamide]", "values": [
      {"measurement": "Ki", "setting": "[1]", "result": 0.91, "unit": "nM"},
      {"measurement": "Ki", "setting": "[2]", "result": 1.47, "unit": "nM"},
      {"measurement": "EC50", "setting": "[3]", "result": 8, "unit": "nM"}
    ]},
    {"smiles": "O=C(Nc1cn(CC(=O)N2CCC(NC3CCC3)CC2)nc1-c1cc(Cl)ccc1OC(F)F)c1cnn2cccnc12", "note": "[Example 84, N-[3-[5-chloro-2-(difluoromethoxy)phenyl]-1-[2-[4-(cyclobutylamino)-1-piperidyl]-2-oxo-ethyl]pyrazol-4-yl]pyrazolo[1,5-a]pyrimidine-3-carboxamide]", "values": [
      {"measurement": "Ki", "setting": "[1]", "result": 0.91, "unit": "nM"},
      {"measurement": "Ki", "setting": "[2]", "result": 1.47, "unit": "nM"},
      {"measurement": "EC50", "setting": "[3]", "result": 24.6, "unit": "nM"}
    ]},
    {"smiles": "Nc1nn2cccnc2c1C(=O)Nc1cn(C2CCN(CCCN3CCN(Cc4ccccc4)C3=O)CC2)nc1-c1cc(Cl)ccc1OC(F)F", "note": "[Example 166, 2-amino-N-[1-[1-[3-(3-benzyl-2-oxo-imidazolidin-1-yl)propyl]-4-piperidyl]-3-[5-chloro-2-(difluoromethoxy)phenyl]pyrazol-4-yl]pyrazolo[1,5-a]pyrimidine-3-carboxamide]", "values": [
      {"measurement": "Ki", "setting": "[1]", "result": 0.91, "unit": "nM"},
      {"measurement": "Ki", "setting": "[2]", "result": 0.26, "unit": "nM"},
      {"measurement": "EC50", "setting": "[3]", "result": 22.9, "unit": "nM"}
    ]},
    {"smiles": "CN(C)C1CCN(C(=O)c2ccc(-n3cc(NC(=O)c4cnn5cccnc45)c(-c4cc(Cl)ccc4OC(F)F)n3)cc2)CC1", "note": "[Example 302, Pyrazolo[1,5-a]pyrimidine-3-carboxylic acid {3-(5-chloro-2-difluoromethoxy-phenyl)-1-[4-(4-dimethylamino-piperidine-1-carbonyl)-phenyl]-1H-pyrazol-4-yl}-amide hydrochloride]", "values": [
      {"measurement": "Ki", "setting": "[1]", "result": 0.6, "unit": "nM"},
      {"measurement": "Ki", "setting": "[2]", "result": 1.11, "unit": "nM"},
      {"measurement": "EC50", "setting": "[3]", "result": 16.2, "unit": "nM"}
    ]},
    {"smiles": "Nc1nn2cccnc2c1C(=O)Nc1cn(C2CCN(CCCN3CCCC3=O)CC2)nc1-c1cc(Cl)ccc1OC(F)F", "note": "[Example 146, 2-amino-N-[3-[5-chloro-2-(difluoromethoxy)phenyl]-1-[1-[3-(2-oxopyrrolidin-1-yl)propyl]-4-piperidyl]pyrazol-4-yl]pyrazolo[1,5-a]pyrimidine-3-carboxamide]", "values": [
      {"measurement": "Ki", "setting": "[1]", "result": 0.45, "unit": "nM"},
      {"measurement": "Ki", "setting": "[2]", "result": 0.13, "unit": "nM"},
      {"measurement": "EC50", "setting": "[3]", "result": 3.9, "unit": "nM"}
    ]},
    {"smiles": "CN(CCOc1ccc(Br)cc1)C1CCN(C(=O)Cn2cc(NC(=O)c3cnn4cccnc34)c(-c3cc(Cl)ccc3OC(F)F)n2)CC1", "note": "[Example 104, N-[1-[2-[4-[2-(4-bromophenoxy)ethyl-methyl-amino]-1-piperidyl]-2-oxo-ethyl]-3-[5-chloro-2-(difluoromethoxy)phenyl]pyrazol-4-yl]pyrazolo[1,5-a]pyrimidine-3-carboxamide]", "values": [
      {"measurement": "Ki", "setting": "[1]", "result": 0.93, "unit": "nM"},
      {"measurement": "Ki", "setting": "[2]", "result": 2.11, "unit": "nM"},
      {"measurement": "EC50", "setting": "[3]", "result": 20.2, "unit": "nM"}
    ]},
    {"smiles": "CN1CC[C@@H](n2cc(NC(=O)c3c(N)nn4cccnc34)c(-c3cc(Cl)ccc3OC(F)F)n2)C1", "note": "[Example 183, 2-amino-N-[3-[5-chloro-2-(difluoromethoxy)phenyl]-1-[(3R)-1-methylpyrrolidin-3-yl]pyrazol-4-yl]pyrazolo[1,5-a]pyrimidine-3-carboxamide]", "values": [
      {"measurement": "Ki", "setting": "[1]", "result": 0.49, "unit": "nM"},
      {"measurement": "Ki", "setting": "[2]", "result": 0.23, "unit": "nM"},
      {"measurement": "EC50", "setting": "[3]", "result": 6.8, "unit": "nM"}
    ]},
    {"smiles": "CN1CCN(C(=O)c2ccc(-c3nc(-c4cc(Cl)ccc4OC(F)F)c(NC(=O)c4cnn5cccnc45)s3)cc2)CC1", "note": "[Example 259, N-[4-[5-chloro-2-(difluoromethoxy)phenyl]-2-[4-(4-methylpiperazine-1-carbonyl)phenyl]thiazol-5-yl]pyrazolo[1,5-a]pyrimidine-3-carboxamide]", "values": [
      {"measurement": "Ki", "setting": "[1]", "result": 0.93, "unit": "nM"},
      {"measurement": "Ki", "setting": "[2]", "result": 0.56, "unit": "nM"},
      {"measurement": "EC50", "setting": "[3]", "result": 13, "unit": "nM"}
    ]},
    {"smiles": "CN1C[C@H]2CN(C(=O)Cn3cc(NC(=O)c4cnn5cccnc45)c(-c4cc(Cl)ccc4OC(F)F)n3)C[C@@]2(c2ccccc2)C1", "note": "[Example 43, N-[1-[2-[(3aS,6aS)-2-methyl-3a-phenyl-3,4,6,6a-tetrahydro-1H-pyrrolo[3,4-c]pyrrol-5-yl]-2-oxo-ethyl]-3-[5-chloro-2-(difluoromethoxy)phenyl]pyrazol-4-yl]pyrazolo[1,5-a]pyrimidine-3-carboxamide]", "values": [
      {"measurement": "Ki", "setting": "[1]", "result": 0.66, "unit": "nM"},
      {"measurement": "Ki", "setting": "[2]", "result": 0.36, "unit": "nM"},
      {"measurement": "EC50", "setting": "[3]", "result": 15, "unit": "nM"}
    ]},
    {"smiles": "CCOC(=O)CCCN1CCC(n2cc(NC(=O)c3c(N)nn4cccnc34)c(-c3cc(Cl)ccc3OC(F)F)n2)CC1", "note": "[Example 175, ethyl 4-[4-[4-[(2-aminopyrazolo[1,5-a]pyrimidine-3-carbonyl)amino]-3-[5-chloro-2-(difluoromethoxy)phenyl]pyrazol-1-yl]-1-piperidyl]butanoate]", "values": [
      {"measurement": "Ki", "setting": "[1]", "result": 0.78, "unit": "nM"},
      {"measurement": "Ki", "setting": "[2]", "result": 0.13, "unit": "nM"},
      {"measurement": "EC50", "setting": "[3]", "result": 13.4, "unit": "nM"}
    ]},
    {"smiles": "O=C(CCCN1CCC(n2cc(NC(=O)c3cnn4cccnc34)c(-c3cc(Cl)ccc3OC(F)F)n2)CC1)NC1CCOCC1", "note": "[Example 152, N-[3-[5-chloro-2-(difluoromethoxy)phenyl]-1-[1-[4-oxo-4-(tetrahydropyran-4-ylamino)butyl]-4-piperidyl]pyrazol-4-yl]pyrazolo[1,5-a]pyrimidine-3-carboxamide]", "values": [
      {"measurement": "Ki", "setting": "[1]", "result": 1.08, "unit": "nM"},
      {"measurement": "Ki", "setting": "[2]", "result": 0.19, "unit": "nM"},
      {"measurement": "EC50", "setting": "[3]", "result": 11.9, "unit": "nM"}
    ]},
    {"smiles": "CN(Cc1cccc(C(F)(F)F)c1)C1CCN(C(=O)Cn2cc(NC(=O)c3cnn4cccnc34)c(-c3cc(Cl)ccc3OC(F)F)n2)CC1", "note": "[Example 128, N-[3-[5-chloro-2-(difluoromethoxy)phenyl]-1-[2-[4-[methyl-[[3-(trifluoromethyl)phenyl]methyl]amino]-1-piperidyl]-2-oxo-ethyl]pyrazol-4-yl]pyrazolo[1,5-a]pyrimidine-3-carboxamide]", "values": [
      {"measurement": "Ki", "setting": "[1]", "result": 1.12, "unit": "nM"},
      {"measurement": "Ki", "setting": "[2]", "result": 3.09, "unit": "nM"},
      {"measurement": "EC50", "setting": "[3]", "result": 42.5, "unit": "nM"}
    ]},
    {"smiles": "N#CC1(CN2C[C@@H]3CN(C(=O)Cn4cc(NC(=O)c5cnn6cccnc56)c(-c5cc(Cl)ccc5OC(F)F)n4)C[C@@H]3C2)CCCCC1", "note": "[Example 47, N-[1-[2-[(3aS,6aR)-2-[(1-cyanocyclohexyl)methyl]-1,3,3a,4,6,6a-hexahydropyrrolo[3,4-c]pyrrol-5-yl]-2-oxo-ethyl]-3-[5-chloro-2-(difluoromethoxy)phenyl]pyrazol-4-yl]pyrazolo[1,5-a]pyrimidine-3-carboxamide]", "values": [
      {"measurement": "Ki", "setting": "[1]", "result": 0.33, "unit": "nM"},
      {"measurement": "Ki", "setting": "[2]", "result": 0.54, "unit": "nM"},
      {"measurement": "EC50", "setting": "[3]", "result": 11, "unit": "nM"}
    ]}
  ]
}
